Values quoted from earlier work in patent publication US20220372506A1, “CYP81E GENES […] TOLERANCE” (Colorado State University Research Foundation, priority 2020, published 2022).
Entries after “also recorded” stand apart in the source; their conditions may differ.

Columns and labels:
[1] = system: A. tuberculatus NEB population; conditions: malathion pre-treatment before 2,4-D, Figueiredo et al. 2018
[2] = system: A. tuberculatus CHR population; conditions: CHR population compared to WUS; for level of resistance (dose response): Evans et al. 2019
[3] = system: A. tuberculatus NEB population

In the case of `CCOC(=O)CC(SP(=S)(OC)OC)C(=O)OCC` (stereo not drawn) [malathion], the “effect of pre-treatment on 2,4-D resistance phenotype” value [1] is given as “reverted to sensitivity; also recorded: reversed the resistance phenotype”.

For `O=C(O)COc1ccc(Cl)cc1Cl` [2,4-D, 2,4-dichlorophenoxyacetic acid], the “level of resistance (dose response)” value [2] is given as 9 fold and the “level of 2,4-D resistance” value ([3]; NEB population compared to the Nebraska 2,4-D sensitive population, Bernards et al. 2012) is given as 10 fold.

In the case of `CS(=O)(=O)c1ccc(C(=O)C2C(=O)CCCC2=O)c([N+](=O)[O-])c1` [mesotrione], the “level of resistance (dose response)” value [2] is given as roughly 15 fold.

For `CS(=O)(=O)c1ccc(C(=O)C2C(=O)CCCC2=O)c(Cl)c1COCC(F)(F)F` [tembotrione], the resistance to tembotrione ([2]; Murphy and Tranel, 2019) is given as 43 fold and the resistance to tembotrione ([3]; NEB population compared to WUS, Murphy and Tranel, 2019) is given as 15 fold.
